Assays:
[1] = Solubility of pralsetinib and its solid forms; assay type: physicochemical; conditions: for solubility in simulated gastric fluid: simulated gastric fluid (possibly due to conversion to HCl salt)
[2] = Dynamic Vapor Sorption (DVS); assay type: physicochemical; conditions: for total mass change by DVS: between 2% and 95% relative humidity
Protocol: Dynamic Vapor Sorption (DVS) was done using a DVS Intrinsic 1. The sample is loaded into a sample pan and suspended from a microbalance. A typical sample mass for DVS measurement is 25 mg. Nitrogen gas bubbled through distilled water provides the desired relative humidity. A typical measurement comprises the steps: • 1—Equilibrate at 50% RH • 2—50% to 2%. (50%, 40%, 30%, 20%, 10% and 2%) • a. Hold minimum of 5 mins and maximum of 60 minutes at each humidity. The pass criteria is less than 0.002% change • 3 —2% to 95% (2%, 10%, 20%, 30%, 40%, 50%, 60%, 70%, 80%, 90%, 95%) • a. Hold minimum of 5 mins and maximum of 60 minutes at each humidity. The pass criteria is less than 0.002% change • 4—95% to 2% (95%, 80%, 70%, 60%, 50%, 40%, 30%, 20%, 10%, 2%) • a. Hold minimum of 5 mins and maximum of 60 minutes at each humidity. The pass criteria is less than 0.002% change • 5—2% to 50% (2%, 10%, 20%, 30%, 40%, 50%) • a. Hold minimum of 5 mins and maximum of 60 minutes at each humidity. The pass criteria is less than 0.002% change

[3] = Solid form stability to humidity and drying; assay type: physicochemical; conditions: for stability to drying: 50° C. (under vacuum) where stated
Protocol: In one aspect, the present disclosure provides a process for preparing crystalline Form A, Form B or Form C. In a particular aspect, Form A can be obtained by slurrying in alcohols, acetone, and acetonitrile or Form A was prepared by evaporative crystallization in multiple solvents and cooling crystallization in isopropanol and 1-propanol. Form A can also be produced by recrystallization in acetone:water. Form C can be obtained by recrystallizing Compound (I) in various water containing solvent systems (acetone:water, methanol:water, isopropanol:water, dimethylacetamide:water, tetrahydrofuran:water). Form C was stable drying at 50° C. under vacuum, and converted to Form B (anhydrous) upon heating to 150° C. […] Form C was not as hygroscopic as Form A during the dynamic vapor sorption measurements, gaining only 1.44% water.

[4] = Competitive slurry experiments; assay type: physicochemical
[5] = Accelerated stability for 4 weeks at 40° C./75% RH; assay type: physicochemical; conditions: Compositions 1-3
Protocol: The manufacturing process for the Compositions 1-3 are as follows: • 1) Intragranular components were blended in a suitably sized contained using the Turbula blender for 3 minutes at 23 rpm • 2) Intragranular blend was dry granulated by densification using a Riva minipress fitted with 22×9 mm caplet tooling • 3) Resultant material was milled using a Comil 193 fitted with 991 μm screen 4) Granule bulk density was determined and if not within 0.55-0.6 g/mL, densification and milling repeated until the desired bulk density was achieved • 5) Extragranular components were blend with the granules in a Turbula blender for 2 minutes at 23 rpm • 6) Final blend was hand filled in to Size 0 HPMC Capsules (Vcaps® Plus) • 7) Capsules were packed into 60 mL HDPE bottles with 4 g desiccant cap at a count of 30 capsules per bottle • 8) Packed product was placed on accelerated stability for 4 weeks at 40° C./75% RH

[6] = tested on: NSCLC and thyroid cancer xenografts driven by various RET mutations and fusions; conditions: in vivo; cited from earlier work
[7] = tested on: VEGFR2; conditions: in vivo; cited from earlier work

SMILES: CO[C@]1(C(=O)N[C@@H](C)c2ccc(-n3cc(F)cn3)nc2)CC[C@H](c2nc(C)cc(Nc3cc(C)[nH]n3)n2)CC1 [Form C, (cis)-N—((S)-1-(6-(4-fluoro-1H-pyrazol-1-yl)pyridin-3-yl)ethyl)-1-methoxy-4-(4 methyl-6-(5-methyl-1H-pyrazol-3-ylamino)pyrimidin-2-yl)cyclohexanecarboxamide]
- solubility in simulated gastric fluid [1]: high solubility
- solubility in simulated intestinal fluid [1]: lower solubility than Form A
- solubility in water [1]: lower solubility than Form A
- water gained during dynamic vapor sorption measurements [2]: 1.44%
- total mass change by DVS [2]: 1.4 wt. %
- stability by X-ray powder diffraction during humidity testing ([3]; 75% relative humidity and 40° C. for one week, and cycling down to 2% relative humidity by DVS): remained stable
- form conversion in competitive slurry, acetone and isopropanol ([4]; acetone and isopropanol): converted to Form A

SMILES: CO[C@]1(C(=O)N[C@@H](C)c2ccc(-n3cc(F)cn3)nc2)CC[C@H](c2nc(C)cc(Nc3cc(C)[nH]n3)n2)CC1 [Form B, (cis)-N—((S)-1-(6-(4-fluoro-1H-pyrazol-1-yl)pyridin-3-yl)ethyl)-1-methoxy-4-(4 methyl-6-(5-methyl-1H-pyrazol-3-ylamino)pyrimidin-2-yl)cyclohexanecarboxamide]
- total mass change by DVS [2]: 1.4 wt. %

SMILES: COC1(C(=O)NC(C)c2ccc(-n3cc(F)cn3)nc2)CCC(c2nc(C)cc(Nc3cc(C)[nH]n3)n2)CC1.Cl (centres unmarked) [Form I]
- stability to drying [3]: stable to drying
- behaviour at elevated humidity / humidification [3]: deliquesced

SMILES: CO[C@]1(C(=O)N[C@@H](C)c2ccc(-n3cc(F)cn3)nc2)CC[C@H](c2nc(C)cc(Nc3cc(C)[nH]n3)n2)CC1 [pralsetinib, (cis)-N—((S)-1-(6-(4-fluoro-1H-pyrazol-1-yl)pyridin-3-yl)ethyl)-1-methoxy-4-(4 methyl-6-(5-methyl-1H-pyrazol-3-ylamino)pyrimidin-2-yl)cyclohexanecarboxamide]
- aqueous solubility [1]: low aqueous solubility
- solubility in acidic pH ([1]; acidic pH (pH 1.2 medium)): relatively high solubility
- physical form by XRPD after storage [5]: remains as an amorphous solid dispersion
- growth of xenografts [6]: potently inhibits growth
- inhibition of VEGFR2 [7]: without inhibiting

SMILES: CO[C@]1(C(=O)N[C@@H](C)c2ccc(-n3cc(F)cn3)nc2)CC[C@H](c2nc(C)cc(Nc3cc(C)[nH]n3)n2)CC1 [Form A, (cis)-N—((S)-1-(6-(4-fluoro-1H-pyrazol-1-yl)pyridin-3-yl)ethyl)-1-methoxy-4-(4 methyl-6-(5-methyl-1H-pyrazol-3-ylamino)pyrimidin-2-yl)cyclohexanecarboxamide]
- solubility in simulated gastric fluid [1]: high solubility
- solubility in simulated intestinal fluid [1]: low solubility
- solubility in water [1]: low solubility
- reversible mass change by DVS ([2]; between 2-95% relative humidity): about 10%
- conversion on prolonged humidity exposure ([3]; prolonged humidity exposure): did not convert to Form C
- form conversion in competitive slurry, methanol:water ([4]; methanol:water at high ratios of water to methanol and lower temperatures): converted to Form C

SMILES: CO[C@]1(C(=O)N[C@@H](C)c2ccc(-n3cc(F)cn3)nc2)CC[C@H](c2nc(C)cc(Nc3cc(C)[nH]n3)n2)CC1.Cl [Form II]
- stability to drying [3]: converted to Form III

SMILES: COC1(C(=O)NC(C)c2ccc(-n3cc(F)cn3)nc2)CCC(c2nc(C)cc(Nc3cc(C)[nH]n3)n2)CC1.Cl (centres unmarked) [Form III]
- behaviour at elevated humidity / humidification [3]: stable to humidification

Source: patent US12692251B2, “Pralsetinib pharmaceutical compositions” (Rigel Pharmaceuticals, Inc., priority 2020, dated 2026)
